Experimental data as given in patent US20040022788A1, “Compositions and methods for promoting or inhibiting angiogenesis” (priority 1998, published 2004).
“Also recorded” adds a separate entry of the source.

Experiments:
[1] = system: plasminogen binding sites on HUVEC; experiment: Competition binding assay, 125I-labeled plasminogen on HUVEC; set-up: species or system human; settings: 1.0 μM 125I-labeled plasminogen; 100-fold molar excess of unlabeled angiostatin
Procedure: FIG. 2. Competition binding assay between plasminogen and angiostatin. HUVEC were plated at a density of 10,000 cells/well and incubated with 1.0 μM ^125I-labeled plasminogen in the presence of 100-fold molar excess of unlabeled angiostatin for 1 h at 4° C. Cells were washed and the remaining radioactivity was quantified by γ-counting.
Binding Assays. Ligands were radioiodinated by using Iodobeads (Pierce), repurified on L-lysine-Sepharose, eluted with 100 mM ε-aminocaproic acid, and dialyzed in PBS, pH 7.0 before use in binding assays. HUVEC were plated at a density of 5,000 or 10,000 cells/well and incubated with increasing concentrations of ^125I-labeled ligand in media containing 1% BSA for 1 h at 4° C. in 96-well plates. Wells were washed, and remaining bound radioactivity was quantified by using an LKB 1272 γ-radiation counter. Nonspecific binding was measured in the presence of excess unlabeled ligand.

[2] = target: T1, recombinant alpha subunit of human ATP synthase (Homo sapiens, UniProt P25705); experiment: Ligand blot binding to the recombinant alpha subunit of ATP synthase; settings: ligand blot
T1 construct: His tag; made in house; host or cells: E. coli BL21DE3
Procedure: FIGS. 7A-7E. Angiostatin binding to the recombinant alpha subunit of human ATP synthase. The alpha subunit of human ATP synthase was cloned and expressed in E. coli and purified using Qiagen's nickel-Sepharose protein purification system before dialyzing in phosphate buffered saline (PBS), pH 7.0. Recombinant protein was electrophoresed on 5-15% SDS-PAGE, electroblotted onto Immobilon™ membrane and incubated 18 h in 10 mM Tris-HCl, 0.15M NaCl, 0.05% NP40, pH 7.5 (TSN) containing ^125I-angiostatin. For competition studies, unlabeled ligand was added 4 h prior to radiolabeled ligand. Blots were washed in TSN buffer containing 0.05% Tween80 and bound radioactivity was quantified on a Molecular Dynamics PhosphorImager™.
Purification of the alpha-Subunit of ATP Synthase. Competent E. coli BL21DE3 were transformed with the pET24a(+) vector containing the alpha subunit, plated on 2× Bacto-yeast tryptone (YT) agarose, and grown overnight at 37° C. Twenty milliliters of 2× YT containing […] kanamycin was inoculated with one colony and grown overnight at 37° C. (200 rpm). A 1-liter culture (2× YT, […] kanamycin) was inoculated with 20 ml of the noninduced overnight culture and grown at 37° C. to an OD of 0.6 at a wavelength of 600 nm. Isopropyl […] was added to a final concentration of 1 mM and grown for an additional 3 h. Cells were harvested by centrifugation at 8,000 rpm for 10 min and stored overnight at −20° C. Lysates were prepared under denaturing conditions and batch-purified by using Qiagen Ni-NTA agarose. Resulting protein was dialyzed against PBS, pH 7.0 for use in all experiments.

[3] = target: T2, purified bovine F1 ATP synthase (Bos taurus, UniProt P00829+P19483); experiment: ELISA binding of angiostatin to purified F1 ATP synthase; settings: double-reciprocal plots; 1 μg F1 ATP synthase per well; read-out: apparent dissociation constant Kd(app)
T2 construct: from tissue; host or cells: bovine heart mitochondria
Procedure: FIG. 11 is a bar graph showing the binding of angiostatin to purified bovine F1 ATP synthase. ELISA was used to determine concentration-dependent binding of angiostatin to a constant amount of F1 ATP synthase. Each well was coated with 1 μg of F1 ATP synthase prior to addition of […] amounts of angiostatin.
ELISA Binding Studies. Binding studies were performed with purified F1 subunit of bovine ATP synthase ([…]) passively adsorbed onto polyvinylchloride microtiter 96-well flat bottom plates (Dynex Technologies, Inc, Chantilly, Va.) as previously described (22). Briefly, plates were coated with protein in 50 μl of 0.1M Na2CO3, pH9.6 and incubated 2 h at 37° C. Non-specific sites were blocked by incubating with PBS, pH 7.0 containing 1% BSA for 30 min at rt. Binding studies were performed with increasing amounts of angiostatin (0-0.5 mg/ml) added in a […] for 1 h at 37° C. Plates were washed (0.1% Tween20/PBS, pH 7.0) and incubated with anti-human angiostatin antibody (goat IgG) (R&D Systems, Minneapolis, Minn.) (1:200 dil) overnight at 4° C. […] Plates were washed and 150 μl of OPD substrate was added to each well and the reaction stopped with 25 μl of H2SO4 (25%), before monitoring the absorbance at λ=492 nm in a Molecular Devices SpectraMax Plus-384 plate reader. […]

[4] = target: T3, ATP synthase on the surface of HUVEC (Homo sapiens, UniProt P05496+P06576+P25705); experiment: Cell-surface ATP generation by bioluminescent luciferase assay; format: cell-based
T3 construct: endogenous in cells; host or cells: HUVEC (primary human umbilical vein endothelial cells)
Procedure: Cell-surface ATP Assay. […] Cells were treated with (1 μM) angiostatin or (0.1 mg/mL) oligomycin for 1 hr at 37° C. All cells were then incubated with 0.1 Ci ^32P and 0.1 Ci ([…]) [2,8-^3H]-ADP (NEN Life Sciences) for 1 min. Supernatants were removed and centrifuged before assaying for ATP production by thin layer chromatography (TLC) or by firefly luciferase assay. ATP Generation by Bioluminescent Luciferase Assay. […] Louis, Mo.). In this firefly luciferin-luciferase reaction, only ATP is readily detected since the enzymatic reaction of firefly luciferase to oxidize luciferin is specific for ATP relative to all other nucleotides. Samples were injected with the ATP assay mixture and recordings were made in a LuminoskanRS (LabSystems, Franklin, Mass.) over a 10 s period. The response in a given sample or standard was quantified as area under the peak of the response and averaged for duplicate determinations. Data are expressed as picomoles of ATP produced per cell based on standards determined under the same conditions with each experiment. Angiostatin was prepared as described in Sottrup-Jensen, […]., Petersen, T. E. & Magnusson, S. (1978) Progress in Chemical Fibrinolysis and Thrombolysis (Raven Press, New York).

binding of 125I-labeled ligand to recombinant alpha subunit [2]: bound
Kd [3]: 12 nM
Percent Inhibition (+/− S.E.M.) of ATP generation ([4]; 1 μM, 50 μM ADP): 81%
inhibition of ATP generation with increasing concentrations ([4]; increasing concentrations of angiostatin): dose-dependent manner
Substance: angiostatin
inhibition of 125I-labeled plasminogen binding [1]: unaffected; also recorded: no inhibition; also recorded: not inhibited
